The test system of data set [1] is Mycobacterium tuberculosis. Put plainly: Antimicrobial activity against Mycobacterium tuberculosis H37Rv by MABA. The format is functional. On the technique in general: Alamar Blue is a resazurin reagent that responds to reducing activity.
Data set [2] can be described thus: Metabolic stability in human liver microsomes assessed as half life. The format is ADME, Microsome. (Liver microsomes are vesicles of endoplasmic reticulum, rich in cytochrome P450 enzymes.)
Data set [3] in a line: Metabolic stability in human liver microsomes assessed as intrinsic clearance. To be noted: read-out: CLH. It is filed as ADME, Microsome.
Data set [4] is described as follows: Metabolic stability in human liver assessed as intrinsic clearance. It is filed as ADME, tissue-based. Particulars: read-out: CLH.
Data set [5] in a line: Metabolic stability in human liver microsomes assessed as compound remaining after 60 mins in presence of NADPH. The format is ADME, Microsome. Particulars: read-out: Stability.
Data set [6] concerns Mycobacterium tuberculosis. Put plainly: Antimicrobial activity against Mycobacterium tuberculosis H37Rv. It is filed as functional.
The test system of data set [7] is Mycobacterium tuberculosis. Put plainly: Antimicrobial activity against Mycobacterium tuberculosis H37Rv treated with compound diluted mouse serum at 1:8 to 1:64 serial dilution by MABA. It is filed as functional, organism-based.
For data set [8], the system named is Mycobacterium tuberculosis. In words: Antimicrobial activity against Mycobacterium tuberculosis H37Rv incubated for 7 days by alamar blue microplate reader assay. The format is functional. To be noted: 168 h, time 7 day.
Data set [9] relates to Mycobacterium tuberculosis. In words: Antimicrobial activity against Mycobacterium tuberculosis H37Rv by microdilution method. The format is functional. On the technique in general: In broth dilution the organism is exposed to a series of concentrations in liquid medium.
In data set [10] the test system is Mycobacterium tuberculosis. Put plainly: Bacteriostatic activity against Mycobacterium tuberculosis. It is filed as functional.

SMILES strings stand for the structures. ≈ marks a conversion by molar mass, not a printed value. Calls of active or inactive are those of the source. The rule behind the calls is not given here.

`Oc1ccc2c(c(-c3nnco3)cn2-c2ccc(Br)cc2)c1CN1CCCCC1` returned an MIC90 in data set [1] of 0.07 µM (≈ 0.0317 µg/mL). In addition, the half-life in data set [2] was 1.1 h. For the same compound, the microsomal CLint in data set [3] is 21 µL/min/mg. The CLint scaled in data set [4] was 18.9 mL/min/kg. In addition, the remaining at 1 h in data set [5] turned out to be 55%. In turn, `CC(=O)c1cn(-c2cccnc2)c2ccc(O)c(CN3CCC3)c12` gave an MIC90 in data set [1] of 100 µM (≈ 32.1 µg/mL). For the compound `CC(=O)c1cn(-c2ccc(Br)s2)c2ccc(O)c(CN3CCC3)c12`, the MIC90 in [1] turned out to be 0.62 µM (≈ 0.251 µg/mL). This MIC90 lies about 160-fold lower than the previous one. Regarding `COc1ccc(OC)c(-c2ccc(-c3cn(CCc4ccc(C(=O)N(C)C)cc4)nn3)cn2)c1`, the MIC in data set [6] was determined as 0.25 µM (≈ 0.114 µg/mL). As for `Cc1ccc(-n2cc(-c3nnco3)c3c(CN4CCC4)c(O)ccc32)s1`, the MIC90 in data set [1] came out at 3 µM (≈ 1.1 µg/mL). As to `Oc1ccc2c(c(-c3nnco3)cn2-c2ccc(Br)cc2)c1CN1CCCC1`, the MIC90 in [1] worked out at 0.07 µM (≈ 0.0308 µg/mL). In addition, the half-life in data set [2] was 1.09 h. In data set [3], the microsomal CLint came to 21.2 µL/min/mg. Further, the CLint scaled in data set [4] is 19 mL/min/kg. Besides, the remaining at 1 h in data set [5] was 53%.

`CC(=O)c1ccc(-n2cc(C(C)=O)c3c(CN4CCC4)c(O)ccc32)s1`: in [1], the MIC90 is 5 µM (≈ 1.84 µg/mL). Same read-out and setting: then `CC(=O)c1cn(-c2ccc(Br)cc2)c2ccc(O)c(CN3CC(F)C3)c12`, with 1 µM (≈ 0.417 µg/mL). In [1], `CC(=O)c1cn(-c2ccc(Br)cc2)c2ccc(O)c(CN3CCC3)c12` returned an MIC90 of 0.08 µM (≈ 0.0319 µg/mL).

`CC(=O)c1cn(-c2ccc(-c3ccccc3)s2)c2ccc(O)c(CN3CCC3)c12`: the MIC90 in data set [1] was 0.04 µM (≈ 0.0161 µg/mL). Further, the half-life in data set [2] came out at 2.17 h. In addition, the microsomal CLint in data set [3] is 10.7 µL/min/mg. Besides, the CLint scaled in [4] came to 9.6 mL/min/kg. The remaining at 1 h in data set [5] was 68.6%. As to `CC(=O)c1cn(-c2ccc(C)s2)c2ccc(O)c(CN3CCC3)c12`, in [1], the MIC90 came out at 0.37 µM (≈ 0.126 µg/mL). In turn, `CC(=O)c1c(C)n(-c2ccc(Br)cc2)c2ccc(O)c(CN3CCCCC3)c12` registered an MIC90 in data set [1] of 0.28 µM (≈ 0.124 µg/mL). Further, in [2], the half-life stood at 0.967 h. Moreover, the microsomal CLint in [3] amounted to 23.9 µL/min/mg. For the same compound, the CLint scaled in data set [4] turned out to be 21.5 mL/min/kg. Moreover, the remaining at 1 h in data set [5] came to 47.3%. For `Oc1ccc2c(c(-c3nnco3)cn2-c2ccc(Br)cc2)c1CN1CCC1`, the MIC90 in [1] stood at 0.07 µM (≈ 0.0298 µg/mL). Besides, in [2], the half-life is 1.67 h. In addition, the microsomal CLint in data set [3] was 13.8 µL/min/mg. Besides, the CLint scaled in [4] is 12.4 mL/min/kg. Moreover, the remaining at 1 h in data set [5] was found to be 61.7%. For the same compound, the outcome in [7] was Active. Compound `CC(=O)c1cn(-c2cccs2)c2ccc(O)c(CN3CCC3)c12` came in with an MIC90 in data set [1] of 3 µM (≈ 0.979 µg/mL). In other words, the single-digit micromolar range. In [1], `CC(=O)c1c(C)n(-c2ccc(C3CCNCC3)cc2)c2ccc(O)c(CN3CCCCC3)c12` displayed an MIC90 of 0.14 µM (≈ 0.0624 µg/mL). In data set [2], the half-life turned out to be 0.345 h. Further, in data set [3], the microsomal CLint was 66.9 µL/min/mg. In addition, the CLint scaled in data set [4] is 60.2 mL/min/kg. In addition, the remaining at 1 h in [5] was found to be 11.3%. Regarding `CC(=O)c1cn(-c2ccc(Br)cc2)c2ccc(O)c(CN3CCCCC3)c12`, in data set [1], the MIC90 was 0.07 µM (≈ 0.0299 µg/mL). On the same count and under the same terms, then `Oc1ccc2c(c(-c3nnco3)cn2-c2ccc(Br)s2)c1CN1CCC1`, with 1 µM (≈ 0.431 µg/mL); and `Oc1ccc2c(c(-c3nnco3)cn2-c2ccc(Br)s2)c1CN1CC2(COC2)C1`, with 8 µM (≈ 3.79 µg/mL).

Consider `Oc1ccc2c(c(-c3nnco3)cn2-c2ccc(Br)cc2)c1CN1CCOCC1`, for which the MIC90 in data set [1] turned out to be 4 µM (≈ 1.82 µg/mL).

In turn, `CCOC(=O)c1c(-c2ccccc2)oc2ccc(O)c(CN3CCC(C)CC3)c12` registered an MIC in data set [6] of 2.3 µM (≈ 0.905 µg/mL). `CC(=O)c1cn(-c2ccc(Br)cc2)c2ccc(O)c(CN3CCCC3)c12` yielded an MIC90 in [1] of 0.3 µM (≈ 0.124 µg/mL). The same measure, in the same setting: to `CC(=O)c1cn(-c2ccc(Br)s2)c2ccc(O)c(CN3CC4(COC4)C3)c12` belongs 2 µM (≈ 0.895 µg/mL); to `CC(=O)c1cn(-c2cnccn2)c2ccc(O)c(CN3CCC3)c12`, 199 µM (≈ 64.2 µg/mL). Still for that read-out and setting: then `CC(=O)c1cn(-c2ccc(Br)s2)c2ccc(O)c(CN3CCCCC3)c12`, with 0.58 µM (≈ 0.251 µg/mL); and `CC(=O)c1cn(-c2ccc(Br)cc2)c2ccc(O)c(CN3CCC(F)CC3)c12`, with 0.28 µM (≈ 0.125 µg/mL); and `CNC(=O)c1cn(-c2ccc(Br)s2)c2ccc(O)c(CN3CCCCC3)c12`, with 9 µM (≈ 4.04 µg/mL). `O=c1cc(-c2ccccc2O)oc2ccc(O)c(CN3CCC3)c12` yielded an MIC in [8] of 1.39 µM (≈ 0.449 µg/mL). Compound `COC(=O)c1c(NC(=O)c2c(F)c(F)c(F)c(F)c2F)sc2c1CCCCC2` had an MIC in data set [9] of 1 µM (≈ 0.419 µg/mL). This lies in the single-digit micromolar range. For the compound `Oc1ccc2c(c(-c3nnco3)cn2-c2ccc(Br)cc2)c1CN1CC(F)C1`, the MIC90 in [1] was 0.56 µM (≈ 0.248 µg/mL). Still for that read-out and setting: then `Oc1ccc2c(c(-c3nnco3)cn2-c2ccc(Br)cc2)c1CN1CC2(COC2)C1`, with 1 µM (≈ 0.467 µg/mL). Take `CNC(=O)c1c(-c2ccc(O)cc2)oc2ccc(O)c(CC3CCNCC3)c12`: the lowest concentration to inhibit growth in [10] (MIC) was 0.06 µM (≈ 0.0228 µg/mL). This lies in the double-digit nanomolar range.

Regarding `CC(=O)c1cn(-c2ncccn2)c2ccc(O)c(CN3CCC3)c12`, in data set [1], the MIC90 came to 99 µM (≈ 31.9 µg/mL). On to `O=c1cc(-c2ccc(O)cc2)oc2ccc(O)c(CN3CCC3)c12`, for which the minimum inhibitory concentration (MIC) in data set [8] was 1.39 µM (≈ 0.449 µg/mL).

As usually defined, the MIC90 is an inhibitory concentration at the 90% level, which refers to growth in some studies and to a panel of isolates in others. The half-life is how long it takes for the measured level to halve. What is called MIC is the least concentration at which growth counts as inhibited. Read a low MIC as greater potency.
